Patent US5556846A, “17-heterocyclyl-14beta-5alpha-androstane, androstene and androstadiene derivatives active on the cardiovascular system, and pharmaceutical compositions containing same” (Sigma-Tau Industrie Farmaceutiche Riunite S.p.A., priority 1992, dated 1996)

Legend:
Na^+,K^+ -ATPase [1] = biological target: T1, Na^+,K^+ -ATPase (Homo sapiens, UniProt P05023); assay: displacement of the specific 3H-ouabain binding from the purified Na+,K+-ATPase receptor
T1 construct: Na^+,K^+ -ATPase receptor purified according to Jorghensen; from tissue
Excerpt: (§1) To test the affinity for the receptor site of the Na^+,K^+ -ATPase and the inhibitory activity on the enzyme, the following tests were used: a) displacement of the specific ^3 H-ouabain binding from the Na^+,K^+ -ATPase receptor purified according to Jorghensen (Jorghensen P., BBA, 1974, 356, 36) and Erdmann (Erdmann E. et at., Arzneim.Forsh., 1984, 34, 1314): b) inhibition of the activity of the purified Na^+,K^+ -ATPase measured as % of hydrolysis of ^32 P-ATP in presence and in absence of the tested compound (Doucet A. et at., Am.

Na^+,K^+ -ATPase [2] = biological target: T1, Na^+,K^+ -ATPase; assay: inhibition of the activity of the purified Na+,K+-ATPase measured as % of hydrolysis of 32P-ATP; type: biochemical
Excerpt: as §1

[3] = test system: spontaneous hypertensive rats (MHS); assay: blood pressure lowering in spontaneous hypertensive MHS rats (indirect tail-cuff, oral, ten days); type: in vivo, rat (Milan hypertensive strain; settings: n = 7, 20 mg/Kg/os daily in METHOCEL 0.5% w/v; for SBP (systolic blood pressure): controls 172 +/- 2.0; for HR (heart rate): controls 328 +/- 8.6
Excerpt: To test the affinity for the receptor site of the Na^+,K^+ -ATPase and the inhibitory activity on the enzyme, the following tests were used: a) displacement of the specific ^3 H-ouabain binding from the Na^+,K^+ -ATPase receptor purified according to Jorghensen (Jorghensen P., BBA, 1974, 356, 36) and Erdmann (Erdmann E. et at., Arzneim.Forsh., 1984, 34, 1314): b) inhibition of the activity of the purified Na^+,K^+ -ATPase measured as % of hydrolysis of ^32 P-ATP in presence and in absence of the tested compound (Doucet A. et at., Am. […] The ability of these compounds to lower blood pressure was tested by using animal models with genetic arterial hypertension, in particular, spontaneous hypertensive rats of the Milan (MHS) (Bianchi G., Ferrari P., Barber B. The Milan Hypertensive strain. In Handbook of hypertension. Vol.4: Experimental and genetic models of hypertension. Ed. W. de jong-Elsevier Science Publishers B.V., 1984: 328-349).
The procedure adopted to test the antihypertensive activity of the compounds on the above mentioned model was the following: systolic blood pressure (SBP) and heart rate (HR) were measured by an indirect tail-cuff method in three-month old hypertensive rats (MHS) before beginning the treatment (basal values). The rats were then subdivided in two groups of at least 7 animals each, one receiving the compound the other, the control group, receiving only the vehicle. The compound, suspended in METHOCEL 0.5% (w/v), was administered daily by mouth, for ten days. SBP and HR were measured daily 6 and 24 hours after the treatment. At the end of the ten day treatment period, a washout period of at least two days was carried out, in order to check for how long the SBP was mantained low or the basal values were re-established.

[4] = literature statement; cited from earlier work
[5] = 3H-ouabain displacement, purified Na+,K+-ATPase, read-out: Binding ^3 H-Ouab. Displacement log IC50 (converted)
[6] = purified Na+,K+-ATPase, 32P-ATP hydrolysis, read-out: Inhibitory Activity log IC50 (converted)

| Compound | IC50 (Na^+,K^+ -ATPase [1]; [5]) [µM] | IC50 (Na^+,K^+ -ATPase [2]; [6]) [µM] | further results |
| --- | --- | --- | --- |
| C[C@]12C=C[C@H](O)C[C@@H]1CC[C@@H]1[C@@H]2CC[C@]2(C)[C@@](O)(c3ccoc3)CC[C@]12O [Comp. I - ab, 17β-(3-Furyl)-5α-androst-1-ene-3β,14β, 17α-triol] | 3.98 | 31.6 | – |
| C[C@]12CC[C@H]3[C@@H](CCC4=C[C@@H](O)CC[C@@]43C)[C@@]1(O)CC[C@]2(O)c1ccccc1 [Comp. I - ac, 17β-Phenylandrost-4-ene-3β,14β,17α-triol] | 6.31 | 79.4 | – |
| C[C@]12CC[C@H]3[C@@H](CCC4=C[C@@H](OCCCN)CC[C@@]43C)[C@@]1(O)CC[C@]2(O)c1ccccc1 [Comp. I - ae, 3β-(3-Aminopropoxy)-17β-phenylandrost-4-ene-14β,17α-diol] | – | – | SBP (systolic blood pressure) [3]: 157 +/- 3.7 mm Hg; HR (heart rate) [3]: 312 +/- 9.4 beats/min. |
| C[C@]12CC[C@H]3[C@@H](CCC4=C[C@@H](O)CC[C@@]43C)[C@@]1(O)CC[C@]2(O)c1ccoc1 [Comp. I - ah, 17β-(3-Furyl)androst-4-ene-3β,14β,17α-triol] | 3.16 | 50.1 | SBP (systolic blood pressure) [3]: 154 +/- 4.1 mm Hg; HR (heart rate) [3]: 315 +/- 10.1 beats/min. |
| C[C@]12CC[C@H]3[C@@H](CCC4=C[C@@H](OCCO)CC[C@@]43C)[C@@]1(O)CC[C@]2(O)c1ccoc1 [Comp. I - ai, 3β-(2-Hydroxyethoxy)-17β-(3-furyl)androst-4-ene-14β,17α-diol] | 5.01 | 39.8 | – |
| C[C@]12CC[C@H]3[C@@H](CCC4=C[C@@H](OCCCN)CC[C@@]43C)[C@@]1(O)CC[C@]2(O)c1ccoc1 [Comp. I - aj, 3β-(3-Aminopropoxy)-17β-(3-furyl)androst-4-ene-14β,17α-diol] | 1 | 12.6 | SBP (systolic blood pressure) [3]: 150 +/- 3.9 mm Hg; HR (heart rate) [3]: 310 +/- 9.0 beats/min. |
| C[C@]12CC[C@H]3[C@@H](CC=C4C[C@@H](O)CC[C@@]43C)[C@@]1(O)CC[C@]2(O)c1ccccc1 [Comp. I - ap, 17β-Phenylandrost-5-ene-3β,14β,17α-triol] | 7.94 | 100 | – |
| C[C@]12CC[C@H]3[C@@H](C=CC4=C[C@@H](O)CC[C@@]43C)[C@@]1(O)CC[C@]2(O)c1ccccc1 [Comp. I - au, 17β-Phenylandrosta-4,6-diene-3β,14β,17α-triol] | 5.01 | 31.6 | – |
| C[C@]12CC[C@H](O)C[C@@H]1CC[C@@H]1[C@@H]2CC[C@]2(C)[C@@](O)(c3ccccc3)CC[C@]12O [Comp. I - ay, 17β-Phenyl-5α-androstane-3β,14β,17α-triol] | 5.01 | 79.4 | – |
| COc1ccc([C@@]2(O)CC[C@]3(O)[C@@H]4CCC5=C[C@@H](O)CC[C@]5(C)[C@H]4CC[C@]23C)cc1 [Comp. I - bi, 17β-(4-Methoxyphenyl)androst-4-ene-3β,14β,17α-triol] | 3.16 | 39.8 | – |
| C[C@]12CC[C@H]3[C@@H](CC=C4C[C@@H](O)CC[C@@]43C)[C@@]1(O)CC[C@]2(O)c1ccc(Cl)cc1 [Comp. I - bj, 17β-(4-Chlorophenyl)androst-5-ene-3β,14β,17α-triol] | 5.01 | 100 | – |
| C[C@]12CC[C@H](O)C[C@@H]1CC[C@@H]1[C@@H]2CC[C@]2(C)[C@@](O)(c3ccsc3)CC[C@]12O [Comp. I - bk, 17β-(3-Thienyl)-5α-androstane-3β,14β,17α-triol] | 7.94 | 63.1 | – |
| C[C@]12CC[C@H](O)C[C@@H]1CC[C@@H]1[C@@H]2CC[C@]2(C)[C@@](O)(c3cccnc3)CC[C@]12O [Comp. I - bl, 17β-(3-Pyridyl)-5α-androstane-3β,14β,17α-triol] | 5.01 | 63.1 | SBP (systolic blood pressure) [3]: 156 +/- 3.5 mm Hg; HR (heart rate) [3]: 318 +/- 9.5 beats/min. |
| C[C@]12CC[C@H]3[C@@H](CC=C4C[C@@H](O)CC[C@@]43C)[C@@]1(O)CC[C@]2(O)c1nccs1 [Comp. I - bn, 17β-(2-Thiazolyl)androst-5-ene-3β,14β,17α-triol] | 7.94 | 63.1 | – |
| CN(C)c1ccc([C@@]2(O)CC[C@]3(O)[C@@H]4CC=C5C[C@@H](O)CC[C@]5(C)[C@H]4CC[C@]23C)cc1 [Comp. I - bp, 17β-(4-(N,N-Dimethylaminophenyl))androst-5-ene-3β,14β,17α-triol] | 6.31 | 50.1 | – |
| C[C@]12CC[C@H]3[C@@H](CC=C4C[C@@H](O)CC[C@@]43C)[C@@]1(O)CC[C@]2(O)c1ccco1 [Comp. I - bq, 17β-(2-Furyl)androst-5-ene-3β,14β,17α-triol] | 5.01 | 79.4 | – |
| C[C@]12CC[C@H]3[C@@H](CCC4=C[C@@H](OCCN5CCCC5)CC[C@@]43C)[C@@]1(O)CC[C@]2(O)c1ccoc1 [Comp. I - br, 3β-(2-(1-Prrolidinyl)ethoxy)-17β-(3-furyl)androst-4-ene-14β,17α-diol] | 1.58 | 25.1 | – |
| CNCCO[C@@H]1C=C2CC[C@@H]3[C@H](CC[C@]4(C)[C@@](O)(c5ccoc5)CC[C@]34O)[C@@]2(C)CC1 [Comp. I - bt, 3β-(2-Methylaminoethoxy)-17β-(3-furyl)androst-4-ene-14β,17α-diol] | 3.16 | 50.1 | – |
| C[C@]12CC[C@H]3[C@@H](CCC4=C[C@@H](OCCCNC(=N)N)CC[C@@]43C)[C@@]1(O)CC[C@]2(O)c1ccoc1 [Comp. I - bu] | 3.16 | 63.1 | – |
| C[C@]12CC[C@H]3[C@@H](CCC4=C[C@@H](OCC(O)CO)CC[C@@]43C)[C@@]1(O)CC[C@]2(O)c1ccoc1 (stereo partly drawn) [Comp. I - bv, 3β-((2RS)-2,3-Dihydroxypropoxy)-17β-(3-furyl)androst-4-ene-14β,17α-diol] | 3.98 | 79.4 | – |
| C[C@]12CC[C@H]3[C@@H](CCC4=C[C@@H](OCC(N)CN)CC[C@@]43C)[C@@]1(O)CC[C@]2(O)c1ccoc1 (stereo partly drawn) [Comp. I - bw, 3β-((2RS)-2,3-Diaminopropoxy)-17β-(3-furyl)-androst-4-ene-14β,17α-diol] | 3.98 | 100 | – |
| C[C@]12CC[C@H]3[C@@H](CCC4=C[C@@H](SCCCN)CC[C@@]43C)[C@@]1(O)CC[C@]2(O)c1ccoc1 [Comp. I - by, 3β-(3-Aminopropylthio)-17β-(3-furyl)androst-4-ene-14β,17α-diol] | 1.58 | 12.6 | – |
| C[C@]12CC[C@H](O)C[C@H]1CC[C@@H]1[C@@H]2CC[C@]2(C)[C@@](O)(C3=CC(=O)OC3)CC[C@]12O [Ref. comp., 3β,14β,17α-trihydroxy-5β-card-20(22)-enolide, reference compound] | – | – | IC50 (Na^+,K^+ -ATPase [1]): 1.26 µM; IC50 (Na^+,K^+ -ATPase [2]): 5.01 µM; SBP (systolic blood pressure) [3]: 174 +/- 2.1 mm Hg; HR (heart rate) [3]: 340 +/- 10.2 beats/min.; antihypertensive action [4]: do not show antihypertensive action |
